# Tests used:
# E. coli 76 KPC-2(+) = test: MIC of tested agent alone, microdilution; type: cell-based; conditions: Escherichia coli, read-out: MIC of agent alone
# Summary of the method: (§1)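 Checkerboard synergy testing crossed two-fold dilutions of the tested agents or PBA (4–16 mg/L) with β-lactam dilutions (1–64 mg/L), and antibiotic MICs were read at each agent level. FICI was derived from the interface wells. Separately, each agent's own MIC came from standard microdilution.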
# E. coli 77 CMY-2(+) = test: MIC of tested agent alone, microdilution; type: cell-based; conditions: Escherichia coli, read-out: MIC of agent alone
# Summary of the method: as §1
# [1] = system: K. pneumoniae 81 KPC-3(+); test: MIC of tested agent alone, microdilution; type: cell-based; conditions: Klebsiella pneumoniae, read-out: MIC of agent alone
# Summary of the method: as §1
# [2] = system: K. pneumoniae 83 KPC-3(+), CTX-M-3(+); test: MIC of tested agent alone, microdilution; type: cell-based; conditions: Klebsiella pneumoniae, read-out: MIC of agent alone
# Summary of the method: as §1
# [3] = system: K. pneumoniae ATCC BAA-1705 KPC-2(+); test: MIC of tested agent alone, microdilution; type: cell-based; conditions: Klebsiella pneumoniae, ATCCBAA1705, read-out: MIC of agent alone
# Summary of the method: as §1
# [4] = system: P. aeruginosa MUW 700 AmpC(+); test: MIC of tested agent alone, microdilution; type: cell-based; conditions: Pseudomonas aeruginosa, read-out: MIC of agent alone
# Summary of the method: as §1
# [5] = system: K. pneumoniae ATCC 700603 ESBL-positive; test: combination disc test CDT-ESBL; type: cell-based; conditions: Klebsiella pneumoniae, ATCC700603, read-out: Diameter of inhibition zone, CAZ-30 disc with agent
# [6] = system: E. coli 76 KPC-2-positive; test: checkerboard microdilution, antibiotic plus tested agent; type: cell-based, Escherichia coli
# Summary of the method: (§2)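 Read-out is the antibiotic MIC with agent present, plus FICI = combined/alone MIC ratios summed for both partners. Meropenem pairs served for carbapenemase strains and ceftazidime pairs for the AmpC strain. Agent or PBA was tested at 4–16 mg/L.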
# [7] = system: K. pneumoniae 81 KPC-3-positive; test: as above; type: cell-based, Klebsiella pneumoniae
# Summary of the method: as §2
# [8] = system: K. pneumoniae 83 KPC-3-positive, CTX-M-3-positive; test: as above; type: cell-based, Klebsiella pneumoniae
# Summary of the method: as §2
# [9] = system: K. pneumoniae ATCC BAA-1705 KPC-2-positive; test: as above; type: cell-based, Klebsiella pneumoniae
# Summary of the method: as §2
# [10] = system: P. aeruginosa MUW 700 cAmpC-positive; test: as above; type: cell-based, Pseudomonas aeruginosa
# Summary of the method: as §2
# [11] = system: E. coli 82 TR(pl 81), transformant carrying blaKPC-3; test: whole cell assay, meropenem MIC with tested agent; type: cell-based, Escherichia coli
# Procedure: (§3) To examine the ability of tested agents to inhibit various carbapenemases and AmpC-enzymes, their synergy with antibiotics against β-lactamase-producing strains was assessed by checkerboard microdilution assay, with slight modification. Checkerboards were prepared in microtiter plates, with seven two-fold dilutions of β-lactams (1–64 mg/L) in the rows and three two-fold dilutions of tested agents and PBA (4–16 mg/L) in the columns. Tested agents’ concentrations were limited to the concentrations at which the newest commercially available BLIs (vaborbactam, relebactam, and avibactam) are used in susceptibility testing. Plates were inoculated and incubated as in the MIC microdilution assay. Parallel, MICs of tested agents and PBA alone were determined by the microdilution assay. Following the incubation, antibiotic MICs in the presence of each agent’s concentration were determined. Moreover, for the first well without growth found in each checkerboard row and column along the growth/non-growth interface, the fractional inhibitory concentration index (FICI) was calculated using the formula below:FICI = [(MIC of antibiotic in combination)/(MIC of antibiotic alone)] + [(MIC of the tested agent in combination)/(MIC of tested agent alone)].
# E. coli DH5α = test: whole cell assay, meropenem MIC with tested agent; type: cell-based, Escherichia coli
# Procedure: as §3
# KPC producers = test: microdilution with carbapenems; type: cell-based; conditions: agent 16 mg/L
# Procedure: as §3
# For calculations, all off-scale MICs were converted to the next-highest doubling concentration. Subsequently, both the average and the lowest FICI were interpreted. The interpretation was as follows: FICI ≤ 0.5, synergy; 0.5 < FICI ≤ 4, indifference and FICI > 4, antagonism. Primarily, examined combinations consisted of meropenem (Pol-Aura, Morag, Poland) plus tested agents against carbapenemases-producing strains and ceftazidime (Pol-Aura, Morag, Poland) plus tested agents against AmpC-producing strains. For agents that reduced meropenem MIC at least 4-fold for at least two tested strains, similar assays were performed with imipenem (Pol-Aura, Morag, Poland) and ertapenem (Pol-Aura, Morag, Poland).
# [12] = Escherichia coli, read-out: MIC of agent alone
smiles,measurement,setting,value
"OB(O)c1ccccc1 [PBA, phenylboronic acid, reference compound]",MIC,E. coli 76 KPC-2(+),> 400 µg/mL
same,MIC,E. coli 77 CMY-2(+),> 400 µg/mL
same,MIC,[1],> 400 µg/mL
same,MIC,[2],> 400 µg/mL
same,MIC,[3],> 400 µg/mL
same,MIC,[4],> 400 µg/mL
same,zone of inhibition at 300 µg/disc,[5],14 mm
same,Average FICI with ERT,[6],0.35
same,Average FICI with IMI,[6],0.22
same,Average FICI with MEM,[6],0.26
same,The lowest FICI with ERT,[6],0.26
same,The lowest FICI with IMI,[6],0.15
same,The lowest FICI with MEM,[6],0.26
same,Average FICI with ERT,[7],0.51
same,Average FICI with IMI,[7],0.43
same,Average FICI with MEM,[7],0.51
same,The lowest FICI with ERT,[7],0.51
same,The lowest FICI with IMI,[7],0.27
same,The lowest FICI with MEM,[7],0.51
same,Average FICI with ERT,[8],0.51
same,Average FICI with IMI,[8],0.68
same,Average FICI with MEM,[8],0.35
same,The lowest FICI with ERT,[8],0.51
same,The lowest FICI with IMI,[8],0.51
same,The lowest FICI with MEM,[8],0.26
same,Average FICI with ERT,[9],0.85
same,Average FICI with IMI,[9],0.43
same,Average FICI with MEM,[9],0.43
same,The lowest FICI with ERT,[9],0.52
same,The lowest FICI with IMI,[9],0.27
same,The lowest FICI with MEM,[9],0.27
same,Average FICI with ceftazidime,[10],0.10
same,Interpretation of the average FICI with ceftazidime,[10],"S (FICI ≤ 0.5, synergy)"
same,Interpretation of the lowest FICI with ceftazidime,[10],"S (FICI ≤ 0.5, synergy)"
same,The lowest FICI with ceftazidime,[10],0.07
same,MIC,[11]; [12],> 400 µg/mL
same,MIC of meropenem in combination with agent,[11]; agent 4 mg/L,0.50 µg/mL
same,MIC of meropenem in combination with agent,[11]; agent 8 mg/L,0.25 µg/mL
same,MIC of meropenem in combination with agent,[11]; agent 16 mg/L,0.25 µg/mL
same,MIC,E. coli DH5α; [12],> 400 µg/mL
same,MIC of meropenem in combination with agent,E. coli DH5α; agent 16 mg/L,0.016 µg/mL
same,"carbapenems' MIC reduction, up to",KPC producers; KPC-2 producers,up to 8 fold
same,"carbapenems' MIC reduction, up to",KPC producers; KPC-3 producers,up to 4 fold

# From paper PMC10648349, “Aromatic Diboronic Acids as Effective KPC/AmpC Inhibitors” (Molecules, 2023)
